Test results taken from the Kinase Knowledgebase extract (Sharma et al. 2016).

Target: CDK2 (UniProt P24941)
Experiment: Enzyme Assay

Compound	IC50
[O-][n+]1cccc(CNc2cc(-c3ccco3)nc3c(Br)cnn23)c1	0.0001 to 0.1 µM
CCc1cnn2c(NCc3ccnc(O)c3)cc(-c3ccccc3)nc12	0.0001 to 0.1 µM
OCC1CCCCN1c1cc(NCc2cccnc2)n2ncc(Br)c2n1 (configuration not stated)	0.0001 to 0.1 µM
OCCC1CCCCN1c1cc(NCc2cccnc2)n2ncc(Br)c2n1 (configuration not stated)	0.0001 to 0.1 µM
CC(=O)N1CCC(c2cc(NCc3cccnc3)n3ncc(Br)c3n2)CC1	0.0001 to 0.1 µM
[O-][n+]1cccc(CNc2cc(C3CCOCC3)nc3c(Br)cnn23)c1	0.0001 to 0.1 µM
Brc1cnn2c(NCc3cccnc3)cc(C3CCOCC3)nc12	0.0001 to 0.1 µM
NC(=O)N1CCC(c2cc(NCc3cccnc3)n3ncc(Br)c3n2)CC1	0.0001 to 0.1 µM
[O-][n+]1cccc(CNc2cc(-c3ccccc3F)nc3c(Br)cnn23)c1	0.0001 to 0.1 µM
CC(=O)N1CCCC(c2cc(NCc3cccnc3)n3ncc(Br)c3n2)C1 (configuration not stated)	0.0001 to 0.1 µM
CC(C)(O)[C@@H]1CCCN1c1cc(NCc2ccc[n+]([O-])c2)n2ncc(Br)c2n1	0.0001 to 0.1 µM
[O-][n+]1cccc(CNc2cc(C3CCNCC3)nc3c(Br)cnn23)c1	0.0001 to 0.1 µM
Brc1cnn2c(NCc3cccnc3)cc(-c3ccco3)nc12	0.0001 to 0.1 µM
CC1(C)[C@@H]2[C@@H](CO)N(c3cc(NCc4cccnc4)n4ncc(Br)c4n3)C[C@@H]21	0.0001 to 0.1 µM
[O-][n+]1cccc(CNc2cc(N3CCC[C@H]3CO)nc3c(Br)cnn23)c1	0.0001 to 0.1 µM
N[C@H]1CC[C@H](Nc2cc(NCc3cccnc3)n3ncc(Br)c3n2)CC1	0.0001 to 0.1 µM
CCc1cnn2c(NCc3ccc[n+]([O-])c3)cc(C3CCCCC3)nc12	0.0001 to 0.1 µM
CC(C)[C@H](CO)Nc1cc(NCc2ccc[n+]([O-])c2)n2ncc(Br)c2n1	0.0001 to 0.1 µM
OCC[C@@H]1CCCN1c1cc(NCc2cccnc2)n2ncc(Br)c2n1	0.0001 to 0.1 µM
Brc1cnn2c(NCc3ccc4[nH]cnc4c3)cc(C3CCNCC3)nc12	0.0001 to 0.1 µM
CC(C)(O)[C@@H]1CCCN1c1cc(NCc2cccnc2)n2ncc(Br)c2n1	0.0001 to 0.1 µM

Compound	IC50
CC(C)Oc1ccc(CNc2cc(-c3ccccc3F)nc3c(Br)cnn23)c[n+]1[O-]	0.0001 to 0.1 µM
CC(C)c1cc(NCc2ccc[n+]([O-])c2)n2ncc(Br)c2n1	0.0001 to 0.1 µM
O=C(C1CC1)N1CCC(c2cc(NCc3cccnc3)n3ncc(Br)c3n2)CC1	0.0001 to 0.1 µM
Brc1cnn2c(NCc3ccc4[nH]cnc4c3)cc(C3CCCCC3)nc12	0.0001 to 0.1 µM
[O-][n+]1cccc(CNc2cc(-c3ccccc3Cl)nc3c(Br)cnn23)c1	0.0001 to 0.1 µM
COc1c(Cl)cc(CNc2cc(-c3ccccc3)nc3c(Br)cnn23)c[n+]1[O-]	0.0001 to 0.1 µM
CCc1cnn2c(NCc3ccc[n+]([O-])c3)cc(-c3ccccc3F)nc12	0.0001 to 0.1 µM
CCc1cnn2c(NCc3cccnc3)cc(-c3ccccc3)nc12	0.0001 to 0.1 µM
[O-][n+]1cccc(CNc2cc(-c3ccccc3)nc3c(Br)cnn23)c1	0.0001 to 0.1 µM
OC[C@H]1CCCC[C@H]1c1cc(NCc2cccnc2)n2ncc(Br)c2n1	0.0001 to 0.1 µM
OC[C@H]1CCCC[C@H]1Nc1cc(NCc2cccnc2)n2ncc(Br)c2n1	0.0001 to 0.1 µM
NC(=O)N1CCCC(c2cc(NCc3cccnc3)n3ncc(Br)c3n2)C1 (configuration not stated)	0.0001 to 0.1 µM
CC(C)(O)[C@H]1CCCC[C@H]1c1cc(NCc2cccnc2)n2ncc(Br)c2n1	0.0001 to 0.1 µM
Nc1ncc(CNc2cc(C3CCCNC3)nc3c(Br)cnn23)cn1 (configuration not stated)	0.0001 to 0.1 µM
CC(C)(CO)Nc1cc(NCc2cccnc2)n2ncc(Br)c2n1	0.0001 to 0.1 µM
Brc1cnn2c(NCc3cccnc3)cc(C3CCCNC3)nc12 (configuration not stated)	0.0001 to 0.1 µM
Oc1cc(CNc2cc(C3CCCCC3)nc3c(Br)cnn23)ccn1	0.0001 to 0.1 µM
O=c1ccc(CNc2cc(C3CCCCC3)nc3c(Br)cnn23)c[nH]1	0.0001 to 0.1 µM
O=c1cc(CNc2cc(-c3ccccc3)nc3c(Br)cnn23)cc[nH]1	0.0001 to 0.1 µM
CCc1cnn2c(NCc3ccc[n+]([O-])c3)cc(-c3ccccc3)nc12	0.0001 to 0.1 µM
Brc1cnn2c(NCc3cccnc3)cc(-c3ccccc3)nc12	0.0001 to 0.1 µM

Compound	IC50
Cn1cnc2cc(CNc3cc(-c4ccccc4)nc4c(Br)cnn34)ccc21	0.0001 to 0.1 µM
CNC(=O)c1ccc(CNc2cc(-c3ccccc3F)nc3c(Br)cnn23)cc1	0.0001 to 0.1 µM
Brc1cnn2c(NCc3cccnc3)cc(C3CCCCC3)nc12	0.0001 to 0.1 µM
CC(C)[C@@H](CO)Nc1cc(NCc2ccc[n+]([O-])c2)n2ncc(Br)c2n1	0.0001 to 0.1 µM
Fc1ccccc1-c1cc(NCc2ccc3[nH]cnc3c2)n2ncc(Br)c2n1	0.0001 to 0.1 µM
[O-][n+]1cc(CNc2cc(-c3ccccc3)nc3c(Br)cnn23)ccc1OCC(F)(F)F	0.0001 to 0.1 µM
[O-][n+]1cccc(CNc2cc(-c3cccs3)nc3c(Br)cnn23)c1	0.0001 to 0.1 µM
CCOc1ccc(CNc2cc(-c3ccccc3)nc3c(Br)cnn23)c[n+]1[O-]	0.0001 to 0.1 µM
Cc1ccccc1-c1cc(NCc2ccc[n+]([O-])c2)n2ncc(Br)c2n1	0.0001 to 0.1 µM
[O-][n+]1cccc(CNc2cc(C3CCCCC3)nc3c(Br)cnn23)c1	0.0001 to 0.1 µM
OCC1(Nc2cc(NCc3cccnc3)n3ncc(Br)c3n2)CCCC1	0.0001 to 0.1 µM
O=c1ccc(CNc2cc(-c3ccccc3)nc3c(Br)cnn23)c[nH]1	0.0001 to 0.1 µM
Brc1cnn2c(NCc3cccnc3)cc(C3CCNCC3)nc12	0.0001 to 0.1 µM
[O-][n+]1cccc(CNc2cc(-c3ccc(Cl)cc3)nc3c(Br)cnn23)c1	0.0001 to 0.1 µM
COc1ccc(CNc2cc(-c3ccccc3F)nc3c(Br)cnn23)c[n+]1[O-]	0.0001 to 0.1 µM
CCc1cnn2c(NCc3ccc(OC)[n+]([O-])c3)cc(-c3ccccc3F)nc12	0.0001 to 0.1 µM
O=c1ccc(CNc2cc(-c3ccccc3F)nc3c(Br)cnn23)c[nH]1	0.0001 to 0.1 µM
Brc1cnn2c(NCc3ccc(-c4csnn4)cc3)cc(C3CCNCC3)nc12	0.0001 to 0.1 µM
CS(=O)(=O)N1CCC(c2cc(NCc3cccnc3)n3ncc(Br)c3n2)CC1	0.0001 to 0.1 µM
CS(=O)(=O)N1CCCC(c2cc(NCc3cccnc3)n3ncc(Br)c3n2)C1 (configuration not stated)	0.0001 to 0.1 µM
